Reference: patent US20250296955A1, “PIN1 TARGETING COMPOUNDS AND DEGRADERS AND METHODS THEREOF” (The Regents of the University of California, priority 2024, published 2025)
Where a SMILES comes first, the peptide text is derived from it. [ ]: non-standard residue; d: D form. The star is where a group is joined. Phe(4-NO2) = N[C@@H](Cc1ccc([N+](=O)[O-])cc1)C(=O)O; Trp(5-OH) = N[C@@H](Cc1c[nH]c2ccc(O)cc12)C(=O)O; Trp(5-F) = N[C@@H](Cc1c[nH]c2ccc(F)cc12)C(=O)O; Trp(7-Me) = Cc1cccc2c(C[C@H](N)C(=O)O)c[nH]c12; pY = N[C@@H](Cc1ccc(OP(=O)(O)O)cc1)C(=O)O; Phe(4-F) = N[C@@H](Cc1ccc(F)cc1)C(=O)O; mTyr = N[C@@H](Cc1cccc(O)c1)C(=O)O; Pip = O=C(O)[C@@H]1CCCCN1; ClAc = O=C(CCl)*

How the values were obtained:
[1] = target: T1, Pin1 (Homo sapiens, UniProt Q13526); assay: DELFIA displacement assay (displacement of biotinylated D-peptide from 6His-Pin1); format: binding; parameters: human Pin1 (residues 1-163); made in house; host or cells: E. coli BL21 (DE3) gold pLysS; details: ± SD from duplicates
Description: (§1) Important to the success of structure activity relations studies, robust biochemical, biophysical, and cell-based assays were implemented that enabled rapid and iterative evaluations of test Pin1 targeting agents. First, the DELFIA (Dissociation-enhanced lanthanide fluorescent immunoassay) assay platform was used to derive a robust heterogeneous assay to monitor the ability of test agents to displace the binding between Pin1 and the D-Peptide (Table 1), which was obtained in a biotinylated form (FIG. 10). […] Second, for an orthogonal biophysical assay denaturation thermal shift measurements were used. Pin1 was incubated with vehicle control (buffer with 1% DMSO), or test agents at protein: ligand ratio of 1:2 (20 μM protein-40 μM compound) for 10 min at 10° C. in the presence of the fluorescent dye SYPRO Orange. The samples were gradually exposed to increasing temperature (linear gradient from 10° C. to 95° C.), causing the protein to unfold. This unfolding allowed the fluorescent dye to bind to the protein's exposed hydrophobic residues, resulting in an increase in fluorescence. The thermal shift assay measures the protein's melting temperature (Tm), which is the temperature at which the protein denatures by 50%. Ligands can affect a protein target to thermal denaturation, which could manifest in a positive or negative shift in the protein denaturation temperature (ΔTm) (Bai N, Roder H, Dickson A, & Karanicolas J (2019) Scientific Reports 9; and Kranz J K & Schalk-Hihi C (2011) Fragment-Based Drug Design: Tools, Practical Approaches, and Examples 493:277-298). Using these two assays, a series of commercially available Pin1 inhibitors were profiled (Table 1). The non-covalent agent D-peptide resulted only moderately active, with an IC50 value of ˜3 μM that closely resembled the dissociation constant for this agent determined via isothermal titration calorimetry, and the ˜ 3 μM IC50 value as reported by a fluorescence polarization assay (Pinch B J, et al. (2020) Nat Chem Biol 16(9):979-987). […] (Table 1) was observed.
For the reported covalent agents such as sulfopin (Dubiella C, et al. (2021) Nat Chem Biol 17(9):954-963), BJP-07-017-3 (Pinch B J, et al. (2020) Nat Chem Biol 16(9):979-987), or KPT-6566 (Campaner E, et al. (2017) Nat Commun 8:15772), a 6-h pre-incubation period was included in the DELFIA assay to allow the covalent reaction to take place. For those agents, IC50 values that fell in the low nanomolar range were observed, consistent with what was reported previously for those compounds. […] To make those determinations in a broader panel of cancer cell lines three pancreatic cancer cell lines, BxPC3, MIA-PaCa-2, and PANC-1, the breast cancer cell line MDA-MB-231, the prostate cancer cell line PC3, and the non-small cell lung cancer cell line A549 were chosen. Each cell line represents various states of KRAS activating mutations (for example BxPC3 is wt-KRAS, while MIAPaCa2 carries the KRAS(G12C) mutation, and the PANC-1 the KRAS(G12D) (Miquel M, Zhang S, & Pilarsky C (2021) Front Cell Dev Biol 9:748631), A549 is KRAS(G12S) (Wang H, et al. (2019) EBioMedicine 49:106-117), MDA-MB-231 is KRAS(G13D) (Kim R K, et al. (2015) Exp Mol Med 47(1):e137), PC3 is wt-KRAS (Bouali S, et al. (2009) Oncol Rep 21(3):731-735). Pin1 protein levels in these cell lines were established using a specific Pin1 antibody in western blot analyses (FIG. 1A). The data confirmed that all these selected human cancer cell lines expressed a significant level of Pin1 (FIG. 1A).
Each well of 96-well streptavidin-coated plates (PerkinElmer) was incubated with 100 μL of 200 nM biotinylated D-peptide for 2 h and washed 3 times with a wash solution (PerkinElmer). Subsequently, a mixture containing Pin1, and a serial dilution of the test compounds were pre-incubated for 6 h. Eu-N1-labeled anti-6x-His antibody (PerkinElmer, 1:2000) was then added to this mixture and further incubated in the biotinylated D-peptide-bound plates for another 2 h. […]

[2] = target: T1, Pin1; assay: Denaturation thermal shift assay (SYPRO Orange); format: binding; parameters: human Pin1 (residues 1-163); made in house; host or cells: E. coli BL21 (DE3) gold pLysS; details: for ΔTm (° C.): ± SE of four replicates
Description: as §1
Thermal shift assays for Pin1 alone and in the presence of the inhibitors were obtained with a BioRad CFX Connect Real-Time PCR Detection System. Each data point was collected in quadruplicate. Each sample was prepared using buffer 50 mM Phosphate pH 7.5, 150 mM NaCl, 1% DMSO. Protein: ligand ratio used was 1:2 (20 μM protein-40 μM compound), and SYPRO Orange was used. Incubation of the Pin1 protein with the compounds was performed at 10° C. for 10 min. Samples were then heated from 10 to 95° C. with heating increments of 0.05° C., over 30 min. Fluorescence intensity was measured within the excitation/emission ranges 470-505/540-700 nm.

T1 sequence (Q13526 whole entry, the tested form may be a part): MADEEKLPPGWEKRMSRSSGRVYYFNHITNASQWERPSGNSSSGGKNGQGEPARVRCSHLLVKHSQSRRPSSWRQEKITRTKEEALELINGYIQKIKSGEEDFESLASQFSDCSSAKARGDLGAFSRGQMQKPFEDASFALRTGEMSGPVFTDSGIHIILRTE

| SMILES | IC50 ([1]; Table 3) [nM] | ΔTm (° C.) ([2]; Table 4, single transition) | ΔTm (° C.) ([2]; Table 3, single transition) [°C] | also measured |
| --- | --- | --- | --- | --- |
| O=C(CCl)N[C@@H](Cc1cccc(O)c1)C(=O)N1CCCC[C@H]1C(=O)NCCc1c[nH]c2cc(Cl)cc(Cl)c12 [164A2] | 289 ± 23 |  |  | share of first thermal shift peak ([2]; Table 3, percentage in brackets after first ΔTm): 10%; share of second thermal shift peak ([2]; Table 3, percentage in brackets after second ΔTm): 90%; ΔTm (° C.), first of two peaks ([2]; Table 3, two peaks observed, likely incomplete complex formation): −0.25 ± 0.31 °C |
| NC(=O)[C@H](Cc1c[nH]c2ccccc12)NC(=O)[C@@H]1CCCCN1C(=O)[C@H](Cc1ccc(O)cc1)NC(=O)CCl [158G5] (HELM PEPTIDE1{[O=C(CCl)[*:2]].Y.[O=C([C@@H]1CCCCN1[*:1])[*:2]].W.[am]}$$$$V2.0) | 119 ± 6 |  | −9.29 ± 0.04 |  |
| NC(=O)[C@H](Cc1c[nH]c2ccccc12)NC(=O)[C@@H]1CCCCN1C(=O)[C@H](Cc1ccc(OP(=O)(O)O)cc1)NC(=O)CCl [158E7] (ClAc-[pY]-[Pip]-Trp-NH2) | 327 ± 25 |  | −7.08 ± 0.22 |  |
| NC(=O)[C@H](Cc1c[nH]c2ccccc12)NC(=O)[C@@H]1CCCCN1C(=O)[C@H](Cc1ccc([N+](=O)[O-])cc1)NC(=O)CCl [158G2] (ClAc-[Phe(4-NO2)]-[Pip]-Trp-NH2) | 134 ± 13 |  | −10.16 ± 0.04 |  |
| CN(C(=O)CCl)[C@@H](Cc1ccccc1)C(=O)N1CCCC[C@H]1C(=O)N[C@@H](Cc1c[nH]c2ccccc12)C(N)=O [158D11] (HELM PEPTIDE1{[O=C(CCl)[*:2]].[meF].[O=C([C@@H]1CCCCN1[*:1])[*:2]].W.[am]}$$$$V2.0) |  |  |  | ΔTm (° C.) ([2]; Table 2): −10.66 ± 0.04 °C |
| NC(=O)[C@H](Cc1c[nH]c2ccccc12)NC(=O)[C@@H]1CCCCN1C(=O)[C@H](Cc1cccc(O)c1)NC(=O)CCl [158D9] (ClAc-[mTyr]-[Pip]-Trp-NH2) | 34 ± 2 |  | −8.28 ± 0.04 |  |

The next lines start with results.

| IC50 ([1]; Table 3) [nM] | ΔTm (° C.) ([2]; Table 4, single transition) | ΔTm (° C.) ([2]; Table 3, single transition) [°C] | SMILES | also measured |
| --- | --- | --- | --- | --- |
|  | −6.56 ± 0.04 °C |  | NC(=O)[C@H](Cc1c[nH]c2ccccc12)NC(=O)[C@@H]1CCCCN1C(=O)[C@H](Cc1c[nH]c2ccc(O)cc12)NC(=O)CCl [158H3] (ClAc-[Trp(5-OH)]-[Pip]-Trp-NH2) | IC50 ([1]; Table 4): 56 ± 5 nM |
|  | −9.81 ± 0.16 °C |  | NC(=O)[C@H](Cc1c[nH]c2ccccc12)NC(=O)[C@@H]1CCCCN1C(=O)[C@H](Cc1c[nH]c2ccc(F)cc12)NC(=O)CCl [158H8] (ClAc-[Trp(5-F)]-[Pip]-Trp-NH2) | IC50 ([1]; Table 4): 43.5 ± 0.8 nM |
|  | +10.45 ± 0.07 °C |  | Cc1cccc2c(C[C@H](NC(=O)[C@@H]3CCCCN3C(=O)[C@@H]3Cc4c([nH]c5ccccc45)CN3C(=O)CCl)C(N)=O)c[nH]c12 [164A11] |  |
| 146 ± 12 |  | −10.57 ± 0.11 | NC(=O)[C@H](Cc1c[nH]c2ccccc12)NC(=O)[C@@H]1CCCCN1C(=O)[C@H](Cc1ccc(F)cc1)NC(=O)CCl [158G11] (ClAc-[Phe(4-F)]-[Pip]-Trp-NH2) |  |
|  | −10.11 ± 0.20 °C |  | Cc1cccc2c(C[C@H](NC(=O)CCl)C(=O)N3CCCC[C@H]3C(=O)N[C@@H](Cc3c[nH]c4ccccc34)C(N)=O)c[nH]c12 [158H7] (ClAc-[Trp(7-Me)]-[Pip]-Trp-NH2) | IC50 ([1]; Table 4): 91 ± 9 nM |
